# Laboratory results reported in US6426229B1, “Chelating agent and detergent comprising the same” (Mitsubishi Rayon Co., Ltd., priority 1995, dated 2002).
# Assay: Biodegradability, 301C Modified MITI Test (1) (OECD guideline)
# Conditions: not given
row,Compound,biodegradability in 301C Modified MITI Test
1,"CN(CC(=O)O)CC(=O)O [MIDA, N-methyliminodiacetic acid]",completely decomposed to inorganic materials in a short time
2,"O=C(O)CN[C@@H](CC(=O)O)C(=O)O [S-ASMA, (S)-aspartic acid-N-monoacetic acid]",completely converted to inorganic materials in a short time
3,"O=C(O)CCN[C@@H](CC(=O)O)C(=O)O [S-ASMP, (S)-aspartic acid-N-monopropionic acid]",completely converted to inorganic materials in a short time

# Assay: not given
# Conditions: reported value; cited from earlier work
row,Compound,chelate stability constant for calcium
1,"CN(CC(=O)O)CC(=O)O [MIDA, N-methyliminodiacetic acid]",3.7
2,"O=C(O)CN(CC(=O)O)CC(=O)O [NTA, nitrilotriacetic acid, reference compound]",6.4
3,"O=C(O)C[C@@H](C(=O)O)N(CC(=O)O)CC(=O)O [S-ASDA, (S)-aspartic acid-N,N-diacetic acid]",5.8
4,"O=C(O)CN(CCS(=O)(=O)O)CC(=O)O [TUDA, taurine-N,N-diacetic acid]",4.2

# Assay: Storage of aqueous solution or slurry for 60 days: HPLC analysis of components and appearance
# Assay type: physicochemical
# Conditions: keeping temperature 50° C.
# Description: (§1) This aqueous solution was kept at 50° C. for 60 days, and, then, the components were analyzed by HPLC and, simultaneously, the appearance of the solution was observed.
# as §1
# This aqueous solution was kept at 50° C. for 60 days. Then, the components were analyzed by HPLC and, simultaneously, the appearance of the solution was observed.
Compound,Appearance after kept for 60 days,Content of the compound of the formula [I] in aqueous solution after kept for 60 days [wt. %]
"O=C([O-])C[C@H](NCCN[C@@H](CC(=O)[O-])C(=O)[O-])C(=O)[O-].[Na+].[Na+].[Na+].[Na+] [compound 44, tetrasodium (S,S)-ethylenediamine-N,N′-disuccinate]",Light yellow transparent aqueous solution,34.4
"O=C([O-])CC(NCCCNC(CC(=O)[O-])C(=O)[O-])C(=O)[O-].[Na+].[Na+].[Na+].[Na+] (centres unmarked) [compound 45, tetrasodium 1,3-propanediamine-N,N′-disuccinate]",Light yellow transparent aqueous solution,33.3
"O=C([O-])CC(NCCNC(CC(=O)[O-])C(=O)[O-])C(=O)[O-].[Cu+2].[Na+].[Na+] (centres unmarked) [compound 48, copper disodium ethylenediamine-N,N′-disuccinate]",Dark blue transparent aqueous solution,31.4
"O=C([O-])C[C@H](NCCN[C@@H](CC(=O)[O-])C(=O)[O-])C(=O)[O-].[Fe+3].[NH4+] [compound 49, iron ammonium (S,S)-ethylenediamine-N,N′-disuccinate]",Blackish brown aqueous solution,29.9
"O=C([O-])CC(NCCCNC(CC(=O)[O-])C(=O)[O-])C(=O)[O-].[Cu+2].[Na+].[Na+] (centres unmarked) [compound 50, copper disodium 1,3-propanediamine-N,N′-disuccinate]",Dark blue transparent aqueous solution,32.2
